Earlier results as cited in patent publication US7638299B2, “Biosynthetic polypeptides utilizing non-naturally encoded amino acids” (Ambrx, Inc., priority 2004, dated 2009).
Read-outs that look alike come from different tables or passages of the source. No end group written: not given here.

Legend:
[1] = tested on: NIDDM patients; conditions: 4 ng/kg/min intravenously, continuously for one week
[2] = tested on: food intake in rats
[3] = humans
[4] = Kreymann et al., 1987
[5] = U.S. Pat. No. 5,118,666
[6] = stored at 4° C. (Mojsov)
[7] = tested on: HIV-1
[8] = in vitro studies and in animals
[9] = biological target: T1, GLP-1 receptor (Rattus norvegicus, UniProt P32301); conditions: rats
T1 construct: host or cells: live rats (endogenous receptor)
T1 sequence (P32301 22-463): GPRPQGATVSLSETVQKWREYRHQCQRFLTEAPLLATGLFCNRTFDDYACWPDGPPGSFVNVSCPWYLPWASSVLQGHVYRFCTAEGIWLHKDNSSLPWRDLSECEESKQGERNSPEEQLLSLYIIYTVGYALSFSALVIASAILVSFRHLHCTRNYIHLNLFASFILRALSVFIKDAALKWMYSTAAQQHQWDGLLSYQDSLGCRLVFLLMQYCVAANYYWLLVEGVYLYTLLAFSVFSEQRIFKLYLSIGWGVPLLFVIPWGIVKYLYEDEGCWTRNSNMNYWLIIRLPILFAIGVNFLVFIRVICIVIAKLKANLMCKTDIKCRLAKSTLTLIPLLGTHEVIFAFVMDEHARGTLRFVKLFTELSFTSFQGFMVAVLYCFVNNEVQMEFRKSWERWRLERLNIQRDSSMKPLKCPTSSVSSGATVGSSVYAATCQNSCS

[10] = administered subcutaneously
[11] = tested on: lean and obese subjects
[12] = intraventricular administration

## GLP-1: product of the proglucagon gene, gut incretin hormone
[1]
  glycaemic control: dramatically improve glycaemic control
  side effects: without significant side effects
[2]; acute, peripheral administration
  food intake: does not inhibit food intake acutely
[2]; [12]
  food intake: profoundly inhibits food intake
[3]
  plasma half-life: 2 min
[4]
  half-life of circulating GLP-1: about 4 minutes

## GLP-1(7-37): SEQ ID NO: 2; His-Ala-Glu-Gly-...-Lys-Gly-Arg-X wherein X is Gly
[5]
  biological half-life: 3 to 5 minutes
  serum half-life: 3 to 5 min
[6]
  appearance of by-products on storage: have been found as early as eleven months after sample preparation

## enfuvirtide
[7]
  inhibition of HIV-1 mediated CD-4+ cell-cell fusion (syncytial formation) and infection of CD-4+ cells by cell-free virus: potent inhibitor
[8]
  toxicity: non-toxic

## exendin 9-39
[2]; appropriate doses of the GLP-1 antagonist
  antagonism of the GLP-1 effect on food intake: abolish the effects of GLP-1
[9]
  incretin effect elicited by oral glucose: dramatically reduces the incretin effect

## GLP-1(7-36) amide: SEQ ID NO: 1; His-Ala-Glu-Gly-...-Lys-Gly-Arg-X wherein X is NH2 (HAEGTFTSDVSSYLEGQAAKEFIAWLVKGR-NH2; listed as Homo sapiens)
[10]
  time action: about 50 minutes

## PYY: thirty six amino acid long peptide secreted by endocrine cells of the distal gastrointestinal tract
[11]; administered intravenously, lean and obese subjects
  appetite and food intake: suppresses appetite and food intake
[11]; oral, low absorption and rapid degradation in the gastrointestinal tract
  oral activity: negligible

## N-terminally extended GLP-1 (PG 72-107)amide: N-terminally extended GLP-1, proglucagon 72-107 amide (QDFVQWLMNTKRNRNNIAKRHDEFERHAEGTFTSDV-NH2; UniProt P01275 72-107, looked up, fragment)
[2]; [12]
  food intake: inactive
